Literature values in patent US11235023B2, “Beta-hairpin peptidomimetic with elastase inhibitory activity and aerosol dosage forms thereof” (POLYPHOR AG, priority 2016, dated 2022).

How the values were obtained:
elastase = conditions: nasal instillation, CD-1 mice; cited from earlier work
neutrophil elastase = biological target: T1, neutrophil elastase (Mus musculus, UniProt Q3UP87); conditions: mouse model of neutrophil allergen challenge; cited from earlier work
T1 sequence (Q3UP87 27-265): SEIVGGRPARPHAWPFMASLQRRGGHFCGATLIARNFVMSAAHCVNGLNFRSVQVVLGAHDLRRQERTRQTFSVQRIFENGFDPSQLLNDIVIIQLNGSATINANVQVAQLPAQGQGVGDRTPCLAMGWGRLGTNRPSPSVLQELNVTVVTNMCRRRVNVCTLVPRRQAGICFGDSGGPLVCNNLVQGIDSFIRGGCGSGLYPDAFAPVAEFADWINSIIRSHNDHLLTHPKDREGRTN

Row | Compound | Protection against elastase-mediated injury (elastase) | Effect on airway hyperresponsiveness and inflammation (neutrophil elastase)
1 | rhalpha1PI: recombinant form of the elastase inhibitor alpha-1-proteinase inhibitor (alpha1PI) | highly protective | –
2 | CC(C)(C)C(=O)Oc1ccc(S(=O)(=O)Nc2ccccc2C(=O)NCC(=O)O)cc1 [sivelelstat] | – | attenuates airway hyperresponsiveness and inflammation
